Results on one compound are retold here after US4020076A, “Novel phosphoryloxy-thiazoles” (priority 1974, dated 1977).

SMILES strings stand for the structures. Read-outs that look alike come from different tables or passages of the source.

One assay concerns Aedes aegypti larvae. The assay can be described thus: Activity against Aedes aegypti larvae. In kind it is in vivo. The note with it: for mortality at 0.25 µg/mL: 0.25 mg/l (10^-3 ppm); for mortality at 2.5 µg/mL: 2.5 mg/l (10^-2 ppm); for mortality at 25 µg/mL: 25 mg/l. The procedure: f. Activity against Aedes aegypti larvae
10 Aedes aegypti larvae in the IV stage in 49 ml of water were added to 200 ml of water and 1 ml of an acetone solution of the test product was added thereto.

In assay [1] the test system is Agrostis Segetum caterpillars. The assay can be described thus: Activity against Agrostis Segetum caterpillars. The class given is in vivo. The procedure: i. Activity against Agrostis Segetum caterpillars
Larvae of Agrostis Segetum in the fifth stage were placed in small boxes whose bottom (26 cm on a side) is in the form of a square with a height of 20 cm. The boxes were filled with dirt to a height of 8 cm and 5 lettuce plants of about 15 cm high were planted and 10 caterpillars were placed in each box and after 3 hours, the boxes were each sprayed with 5 ml of an aqueous solution of the test product and the percent of efficacy is reported in Table IX.

Setting [2] is: 24 h, read-out: % of mortality after 24 H.
[3] abbreviates: 48 h, read-out: % of mortality after 48 H.

For `CCOc1nc(OP(=S)(OC)OC)c(C#N)s1` [Compound C, 2-ethoxy-4-dimethoxythiophosphoryloxy-5-cyano-thiazole], the mortality at 0.25 µg/mL with Aedes aegypti larvae (setting [2]) and with Aedes aegypti larvae (setting [3]) was 0% in each case. Also, the mortality at 2.5 µg/mL in the assay on Aedes aegypti larvae (setting [2]) and in the assay with Aedes aegypti larvae (setting [3]) was 0% in each case. Besides, the mortality at 25 µg/mL with Aedes aegypti larvae (setting [2]) and with Aedes aegypti larvae (setting [3]) was 100% throughout. Besides, the Emax amounted to 50% in assay [1] (72 h, 50 g/hl, read-out: % efficacy after 3 days); 80% in assay [1] (72 h, 150 g/hl, read-out: % efficacy after 3 days); 25% in assay [1] (72 h, read-out: % efficacy after 3 days, 100 g/hl); 100% in assay [1] (120 h, 50 g/hl, read-out: % efficacy after 5 days); 100% in assay [1] (120 h, 150 g/hl, read-out: % efficacy after 5 days); 50% in assay [1] (120 h, read-out: % efficacy after 5 days, 100 g/hl). Also, the Emax in assay [1] (168 h, 50 g/hl, read-out: % efficacy after 7 days) is 100%; in assay [1] (168 h, 150 g/hl, read-out: % efficacy after 7 days), 100%; in assay [1] (168 h, read-out: % efficacy after 7 days, 100 g/hl) it was 100%.
